≈ marks a conversion by molar mass, not a printed value.

One data set deals with Leishmania donovani. As to the kind of experiment: Leishmania donovani infected macrophage assay. It is filed as cell-based. The note with it: read-out: IC50 against Leishmania donovani. On the procedure:
(§1) The Leishmania donovani infected macrophage assay and cytotoxicity screen were conducted as previously described.

Data set [1] is described as follows: Cytotoxicity screen against Leishmania host cell line. Format: cell-based. The note with it: mouse, J774.A1 macrophages. The protocol:
as §1

Data set [2] in a line: MTT cytotoxicity toward human liver cells. Format: cell-based. The note with it: human, HepG2 cells; host cell line HepG2, MTT, 24 h incubation. On the procedure: (§2) The cytotoxicity of the metabolites to human liver cells and kidney cells was determined using an MTT based-In Vitro Toxicology Assay Kit (Sigma–Aldrich, St. Louis, MO, USA) following the manufacturing instructions. The human kidney HEK293T cells and the human liver HEPGZ cells were used for the evaluation in this study. Both cell samples were maintained and suspended in Dulbecco’s Modified Eagle Medium (DMEM with 4.5 g/L glucose, L-glutamine and sodium pyruvate, Corning, Manassas, VA, USA) containing 10% fetal bovine serum (Thermo Scientific) and 1% penicillin/streptomycin at 37 °C under 5% CO2 atmosphere. The cells were plated on a 96-well plate with approximately 5 × 10^3–1 × 10^4 cells in each well, and incubated at 37 °C overnight. After that, each of the selected extracts from the antimicrobial susceptibility test was added to the wells and incubated with the cells at a series of 2-fold diluted concentrations ranging from 128 μg/mL to 0.125 μg/mL. […] After that, the liquid in each well of the plate was removed carefully and thoroughly, then the cells in the wells were treated with 100 μL of DMSO, and incubated at 37 °C for 15 m. […] Bio Tek Instruments, Inc. Winooski VT). Cells treated with vancomycin, a common option for treating CDI in clinical settings, were also included in the MTT tests as a control. Cell survival and the IC50 were calculated according to the method used in a previous publication: Survival of cells (%) = Drug-treated group OD540/control group OD540 × 100. The IC50 value was calculated as follows: lgIC50 = Xm − I [P − (3 − Pm − Pn)/4], where Xm was the log maximum dose, I was the log (maximum dose/adjacent dose), P was the sum of the positive response rate, Pm was the maximum positive response rate, and Pn was the minimum positive response rate.

A short description of data set [3]: MTT cytotoxicity toward human kidney cells. Format: cell-based. The note with it: human, HEK293T cells; host cell line HEK293T, MTT, 24 h incubation. On the procedure:
as §2

For data set [4], the system named is ESKAPE panel of bacterial pathogens. Put plainly: ESKAPE panel antibacterial screen. It is filed as cell-based.
In the next data set the test system is C. difficile UK6. As to the kind of experiment: microbe, parasite or virus in culture. As to conditions: Clostridioides difficile, UK6, 48 h, read-out: MIC against C. difficile. It is filed as cell-based, Clostridium difficile. The protocol: The screening against C. difficile was performed in two steps. In step 1, overnight culture of a hyper-virulent clinical strain C. difficile UK6 was inoculated into a fresh BHIS medium at a volume ratio of 1:1000. After pre-incubation at 37 °C under an anaerobic atmosphere for 2 h, the bacterial culture was divided into a sterile 96-well plate and each well contained 192 μL of bacterial culture. Then, 8 μL of each extract was added to each well of the plate, mixed thoroughly, and incubated at 37 °C in an anaerobic chamber for 48 h. Control groups of 200 μL of BHIS medium only, 200 μL of bacterial culture only, and 192 μL of bacterial culture in 8 μL of DMSO were also included in separate columns within each plate. […] Serial dilutions of each extract (400 μg/mL, 200 μg/mL, 100 μg/mL, 50 μg/mL, 20 μg/mL, 10 μg/mL, 5 μg/mL, and 2 μg/mL) were prepared in a fresh BHIS medium. Then, 100 μL of each extract dilution was added to 100 μL of bacterial culture (pretreated as described), mixed well, and incubated at 37 °C in an anaerobic chamber for 48 h. Control groups including wells containing fresh medium only and bacterial culture only were also included as described. Activity was determined as +/− (clear or turbid (OD600) culture). The MICs of the three recommended antibiotics metronidazole, vancomycin, and fidaxomicin against C. difficile UK6 were also determined using broth microdilution methodology.

In the next data set the test system is HepG2 cells. Put plainly: MTT cytotoxicity toward human liver cells. It is filed as cell-based. As to conditions: at the same concentrations alcyopterosins were assayed. The protocol:
as §2

The test system of the next data set is HEK293T cells. Put plainly: MTT cytotoxicity toward human kidney cells. The note with it: at the same concentrations alcyopterosins were assayed. Format: cell-based. On the procedure:
as §2

For the compound `CC(=O)OCCc1c(C)cc2c(c1COC(C)=O)CC(C)(C)C2` [4,12-Bis(acetyl)alcyopterosin O, 4,12-bis(acetyl)alcyopterosin O], the 50% inhibitory concentration (IC50) in the data set with Leishmania donovani was determined as 1.2 µM.
Regarding `Cc1cc2c(c3c1[C@@H](CO[N+](=O)[O-])OC3=O)CC(C)(C)C2` [Alcyopterosin E], the IC50 in data set [1] is 62 µM; in the data set on Leishmania donovani, 3.1 µM. Moreover, the figures for the cytotoxic concentration (CC50) at 24 h in data set [2] and in data set [3] were 331 µM and 570 µM, respectively. Further, in data set [4], the “activity against the ESKAPE panel of bacterial pathogens” value (shortened to “activity against the ESKAPE panel”) was “inactive”. Further, the MIC in the data set with C. difficile UK6 came to 6.9 µM (≈ 2.01 µg/mL).
On to `Cc1cc2c(c3c1[C@@H](CO)OC3=O)CC(C)(C)C2` [Alcyopterosin V], for which the IC50 in data set [1] was 110 µM; in the data set on Leishmania donovani, 7 µM. Further, the values for the CC50 at 24 h in data set [2] and in data set [3] were 288 µM and 220 µM, respectively. Moreover, the “activity against the ESKAPE panel” value in data set [4] is “inactive”. In addition, the MIC with C. difficile UK6 is 8.1 µM (≈ 2 µg/mL).
For the compound `CN[C@H](CC(C)C)C(=O)N[C@H]1C(=O)N[C@@H](CC(N)=O)C(=O)N[C@H]2C(=O)N[C@H]3C(=O)N[C@H](C(=O)N[C@H](C(=O)O)c4cc(O)cc(O)c4-c4cc3ccc4O)[C@H](O)c3ccc(c(Cl)c3)Oc3cc2cc(c3O[C@@H]2O[C@H](CO)[C@@H](O)[C@H](O)[C@H]2O[C@H]2C[C@](C)(N)[C@H](O)[C@H](C)O2)Oc2ccc(cc2Cl)[C@H]1O` [Vancomycin, reference compound], the “toxicity to host cells HepG2” value with HepG2 cells was “non-toxic”. The “toxicity to host cells HEK293T” value with HEK293T cells is reported as “non-toxic”. In addition, in the data set with C. difficile UK6, the MIC was found to be 0.34 µM (≈ 0.493 µg/mL).
In the case of `Cc1cc2c(c(C)c1CCO[N+](=O)[O-])CC(C)(C)C2=O` [alcyopterosin C], the IC50 with Leishmania donovani stood at 13 µM.
For the compound `Cc1cc2c(c3c1[C@@H](CCl)OC3=O)CC(C)(C)[C@@H]2O` [alcyopterosin L], in the data set on Leishmania donovani, the IC50 was 2.4 µM.
With `CC(=O)O[C@@H]1[C@H](OC(C)=O)[C@H]([C@H](C)CCCC(C)C)[C@@]2(C)C[C@@H](OC(C)=O)[C@H]3[C@@H](C[C@@H](O)[C@H]4CC=CC(=O)[C@]34C)[C@H]12` [alcyosterone], the IC50 in the data set with Leishmania donovani was determined as 1.5 µM. Besides, the “activity against the ESKAPE panel” value in data set [4] is “inactive”.
Take `CCCCCCCCCCCCCCCCOP(=O)([O-])OCC[N+](C)(C)C` [miltefosine, reference compound]: the IC50 in the data set on Leishmania donovani came to 6.2 µM.

The values above are taken from publication PMC9505732, “Chemistry and Bioactivity of the Deep-Water Antarctic Octocoral Alcyonium sp” (Marine Drugs, 2022).
